Several values for one entry are separate records, joined by “and”; a condition that tells them apart may be missing. Equal values may be shown once.
Legend:
Aβ(1-40) [1] = molecular target: T1, Aβ(1-40) (Homo sapiens, UniProt P05067); assay: BASSR (Beta-Amyloid Self-Seeding Radioassay), inhibitors of self-seeded amyloid fibril growth; assay type: biochemical; conditions: 30 μM soluble Aβ(1-40) + 125I-labeled Aβ(1-40), 37° C., 3 to 5 hours; replicate values; letter = synthetic lot; ppt = precipitate; V-shaped = inhibition followed by precipitation
T1 construct: […]; purchased Bachem, Torrance, Calif
Procedure, shortened: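 Self-seeded growth of ^125I-labeled Aβ(1-40) fibrils in 50 mM sodium phosphate pH 7.5, 100 mM NaCl, 0.02% NaN3, 1 M urea; compound (3-fold dilutions from 100 μM final) preincubated 10 min on ice, then 3–5 h at 37° C. Fibrils collected by vacuum filtration on 0.2 μm filters and counted for radioactivity.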

Aβ(1-40) [2] = molecular target: T1, Aβ(1-40); assay: BASST (Beta-Amyloid Self-Seeding, Thioflavin T), inhibitors of self-seeded amyloid fibril growth; assay type: biochemical; conditions: 30 μM soluble Aβ(1-40), 37° C., 3 to 5 hours, thioflavin T fluorescence; replicate values; letter = synthetic lot; read-out: BASST (IC50 = μM)
Procedure, shortened: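 Self-seeded Aβ(1-40) fibril growth was run in 50 mM sodium phosphate pH 7.5, 100 mM NaCl, 0.02% NaN3, 1 M urea. Compounds were tested in 3-fold serial dilutions (top 100 μM final): 10 min on ice, then 3–5 h at 37 °C. Fibrils were read by 5 μM thioflavin T fluorescence (ex 440/em 485 nm).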

Aβ (1-42) = molecular target: T2, Aβ (1-42) (Homo sapiens, UniProt P05067); assay: BATYM assay (Aβ (1-42) aggregation, Thioflavin T fluorescence); assay type: biochemical; conditions: Aβ 1-42 final concentration 100 μM, 37° C., 1 day, letter = synthetic lot
T2 construct: Required Aβ (1-42) (California Peptide) was dried from its hexafluoroisopropanol (HFIP) stock solution; purchased California Peptide
Procedure, shortened: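 Aβ (1-42) (100 μM final, PBS pH 7.4 from DMSO) incubated with compound at 37° C. for 1 day. Aggregation read by ThT (30 μM, glycine-NaOH pH 8.5) fluorescence, ex 440/em 485 nm; inhibition as fluorescence reduction corrected for compound-alone signal, IC50 by curve fitting from two experiments in triplicate.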

Aβ (1-40) peptide = molecular target: T3, Aβ (1-40) peptide (Homo sapiens, UniProt P05067); assay: BAPA (Beta-Amyloid Peptide Aggregation, pH 6.0, filtration); assay type: biochemical; conditions: Aβ (1-40) 33 μM, pH 6.0, 2 to 4 hours at room temperature; replicate values; letter = synthetic lot
T3 construct: 10 μL 0.5 mg/mL Aβ (1-40) peptide in 20% HFIP
Procedure, shortened: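 Aggregation of human Aβ (1-40) peptide was measured in an endpoint filtration assay. The peptide was first reduced to monomer with hexafluoroisopropanol (HFIP), then used at 33 μM so it would aggregate at pH 6.0, and incubated for 2 to 4 hours at room temperature. Filter plates were washed with 100 μL phosphate buffer, impregnated with Meltilex, and counted on a Microbeta counter with background correction.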

T2 sequence (P05067 672-713 limits assumed): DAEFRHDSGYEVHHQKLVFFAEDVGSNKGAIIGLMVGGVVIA
T3 sequence (P05067 672-711 limits assumed): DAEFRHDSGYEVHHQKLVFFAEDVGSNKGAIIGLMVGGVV
T1 sequence (P05067 672-711 limits assumed): as above

Row | IC50 (Aβ(1-40) [1]) | IC50 (Aβ(1-40) [2]) | IC50 (Aβ (1-42)) | IC50 (Aβ (1-40) peptide) | melting point | SMILES
1 | 4.5 µM and 5 µM (3×) and 15 µM | 2 µM and 3 µM | 11.7 µM | > 60 µM | 208 to 209 °C | COc1cc(Nc2ccc(CCc3ccc(Cl)c(Cl)c3)cc2)c(C(=O)O)cc1[N+](=O)[O-] [Example 3, 2-{4-[4-(3,4-Dichloro-phenyl)-ethyl]phenylamino}-4-methoxy-5-nitrobenzoic acid]
2 | 20 µM and 30 µM and 52 µM and 40 µM | 1 µM and 2 µM | 20.1 µM and 28.2 µM and 38.6 µM | 75 µM | 120 to 126 °C | O=C(O)c1ccccc1Nc1ccc(CCCc2ccc(Cl)c(Cl)c2)cc1 [Example 9, 2-{4-[3-(3,4-Dichlorophenyl)-propyl]phenylamino}-benzoic acid]
3 | 16 µM and 12 µM and 15 µM and 11 µM | 1 µM and 1.2 µM | 8.52 µM and 7.26 µM and 7.07 µM | > 60 µM and 7 µM | 153 to 155 °C | O=C(O)c1cc([N+](=O)[O-])ccc1Nc1ccc(CCCc2ccc(Cl)c(Cl)c2)cc1 [Example 15, 2-{4-[3-(3,4-Dichlorophenyl)propyl]phenylanino}-5-nitrobenzoic acid]
4 | 4.2 µM | 6 µM | 68.6 µM | 22 µM | 150 to 153 °C | O=C(O)c1ccccc1Nc1ccc(CCCc2ccc([N+](=O)[O-])cc2)cc1 [Example 20, 2-{4-[3-(4-Nitrophenyl)propyl]phenylamino}benzoic acid]
5 | > 100 µM | 1.5 µM | 8.98 µM | – | 239 to 244 °C | O=C(O)c1cc([N+](=O)[O-])ccc1Nc1ccc(CCc2ccc(-c3ccccc3)cc2)cc1 [Example 62, 2-[4-(2-Biphenyl-4-yl-ethyl)phenylamino]-5-nitro-benzoic acid]
6 | > 100 µM | 3 µM | – | > 60 µM | 180 to 182 °C | O=C(O)c1cc(F)ccc1Nc1ccc(CCc2ccc(Cl)c(Cl)c2)cc1 [Example 71, 2-{4-[2-(3,4-Dichloro-phenyl)-ethyl]-phenylamino}-5-fluoro-benzoic acid]
7 | 18 µM and 15 µM | – | 9.49 µM | > 60 µM | 200.5 to 202.5 °C | O=C(O)c1cc([N+](=O)[O-])ccc1Nc1ccc(CCc2ccc(Cl)cc2Cl)cc1 [Example 77, 2-{4-[2-(2,4-Dichloro-phenyl)-ethyl]-phenylamino}-5-nitro-benzoic acid]
8 | – | 1 µM and 300 nM (3×) | 9.14 µM | 51 µM | > 260 °C | CCCCN(CCCC)c1ccc(CCc2ccc(Nc3ccc([N+](=O)[O-])cc3C(=O)O)cc2)cc1 [Example 79, 2-{4-[2-(4-Dibutylamino-phenyl)-ethyl]-phenylamino}-5-nitro-benzoic acid]
9 | > 100 µM | – | > 100 µM | 108 µM | 106 to 110 °C | CCN(CC)c1ccc(Nc2ccc(CCc3ccc(Cl)c(Cl)c3)cc2)c(C(=O)O)c1 [Example 151, 2-{4-[2-(3,4-Dichloro-phenyl)-ethyl]-phenylamino}-5-diethylamino-benzoic acid]

Further lines, the molecule ahead of its results:

Row | SMILES | IC50 (Aβ(1-40) [1]) | IC50 (Aβ(1-40) [2]) | IC50 (Aβ (1-42)) | IC50 (Aβ (1-40) peptide) | melting point
10 | O=C(O)c1cc([N+](=O)[O-])ccc1Nc1ccc(CCc2ccc(Cl)c(Cl)c2)cc1 [Example 2, 2-{4-[2-(3,4-Dichloro-phenyl)-ethyl]phenylamino}-5-nitrobenzoic acid] | 2.2 µM and 4.1 µM (2×) and 12 µM and 4.5 µM | 1 µM and 1.5 µM | 6.52 µM | 70 µM | 214 to 217 °C
11 | O=C(O)c1ccccc1Nc1ccc(CCc2ccc(O)c(O)c2)cc1 [Example 4, 2-{4-[2-(3,4-Dihydroxy-phenyl)-ethyl]-phenylamino}benzoic acid] | 30 µM and > 100 µM | 3 µM and 4 µM and 8 µM | 26.3 µM and 30.7 µM | 67 µM | 215 to 217 °C
12 | CCCCN(CCCC)c1ccc(CCc2ccc(Nc3ccccc3C(=O)O)cc2)cc1 [Example 5, 2-{4-[2-(4-Dibutylamino-phenyl)-ethyl]phenylamino}benzoic acid] | 70 µM and > 100 µM | 4.5 µM | 10 µM | 74 µM | 115 to 117 °C
13 | O=C(O)c1cc([N+](=O)[O-])ccc1Nc1ccc(CCCCCc2ccc(Cl)c(Cl)c2)cc1 [Example 13, 2-{4-[5-(3,4-Dichlorophenyl)pentyl]phenylamino}-5-nitrobenzoic acid] | 21 µM and > 100 µM (2×) and 20 µM and 15 µM | 0.9 µM | 6.41 µM | 6 µM | 147 to 148 °C
14 | Cc1ccc(CCc2ccc(Nc3ccc([N+](=O)[O-])cc3C(=O)O)cc2)cc1C [Example 16, 2-{4-[2-(3,4-Dimethyl-phenyl)-ethyl]phenylamino}-5-nitrobenzoic acid] | – | 3 µM (2×) and 1.1 µM and 800 nM and 600 nM | 12 µM and 10.3 µM | 13 µM | 214 to 216 °C
15 | O=C(O)c1ccccc1Nc1ccc(-c2ccc(Cl)c(Cl)c2)cc1 [Example 18, 2-[4-(3,4-Dichlorophenyl)phenylamino]benzoic acid] | > 100 µM | 30 µM and > 100 µM | > 100 µM | 9 µM and > 40 µM and 53 µM and 12 µM | > 220 °C
16 | CC(=O)Nc1ccc(CCc2ccc(Nc3ccccc3C(=O)O)cc2)cc1 [Example 35, 2-{4-[2-(4-Acetylaminophenyl)ethyl]phenylamino}benzoic acid] | > 100 µM | – | > 100 µM | 154 µM | 224 °C
17 | CCCCN1CCCc2cc(C=C3SC(=S)N(CCC(=O)O)C3=O)ccc21 [Example 57, 3-{5-[(1-Butyl-1,2,3,4-tetrahydroquinolin-6-yl)methylidene]-4-oxo-2-thioxo-thiazolidin-3-yl)propanoic acid] | 4.8 µM | 1.5 µM | 4 µM | – | 214 to 215 °C
18 | CCCCN1CCCc2cc(C=C3SC(=S)N(CCCC(=O)O)C3=O)ccc21 [Example 58, 4-{5-[(1-Butyl-1,2,3,4-tetrahydroquinolin-6-yl)methylidene]-4oxo-2-thioxo-thiazolidin-3-yl)butanoic acid] | 3.5 µM | 1 µM | 5.1 µM | – | 152 to 154 °C
19 | COc1ccc(CCc2ccc(Nc3ccccc3C(=O)O)cc2)cc1OC [Example 116, 2-{4-[2-(3,4-Dimethoxy-phenyl)-ethyl]-phenylamino}-benzoic acid] | > 100 µM | 18 µM and 30 µM | – | 96 µM | 159 to 161 °C
20 | O=C(O)c1ccccc1Nc1cccc(CCc2ccc(Cl)cc2)c1 [Example 123, 2-{3-[2-(4-Chloro-phenyl)-ethyl]-phenylamino}-benzoic acid] | – | – | 70.8 µM and 85.2 µM | > 60 µM | 155 to 157 °C
21 | Cc1ccc(CCc2cccc(Nc3ccccc3C(=O)O)c2)cc1C [Example 124, 2-{3-[2-(3,4-Dimethyl-phenyl)-ethyl]-phenylamino}-benzoic acid] | > 100 µM | 10 µM | 62.7 µM | – | 182 to 184 °C
22 | O=C(O)c1ccccc1Nc1ccc(CCc2cccc(Cl)c2)cc1 [Example 128, 2-{4-[2-(3-Chloro-phenyl)-ethyl]-phenylamino}-benzoic acid] | – | – | 75 µM and > 60 µM | > 60 µM | 152 to 154 °C
23 | O=C(O)c1ccccc1Nc1ccc(CCc2ccc(-c3ccccc3)cc2)cc1 [Example 129, 2-[4-(2-Biphenyl-4-yl-ethyl)-phenylamino]-benzoic acid] | – | 10 µM and 3 µM and 2 µM (2×) | > 100 µM | > 102 µM | 200 to 202 °C
24 | O=C(O)c1ccccc1Nc1ccc(CCc2ccc(Cl)cc2Cl)cc1 [Example 130, 2-{4-[2-(2,4-Dichloro-phenyl)-ethyl]-phenylamino}-benzoic acid] | > 100 µM | – | 47.5 µM | 238 µM | 181 to 183 °C
25 | O=C(O)c1ccc(Nc2ccc(CCc3ccc(Cl)c(Cl)c3)cc2)cc1 [Example 132, 4-{4-[2-(3,4-Dichloro-phenyl)-ethyl]-phenylamino}-benzoic acid] | > 100 µM | 10 µM | > 100 µM | – | 214 to 215 °C
26 | O=C(O)c1ccccc1Nc1ccc(-c2cc(Cl)cc(Cl)c2)cc1 [Example 137, 2-(3′,5′-Dichloro-biphenyl-4-ylamino)-benzoic acid] | > 100 µM | 3 µM | – | 52 µM | > 220 °C

Reference: patent publication US6972287B1, “Method of inhibiting amyloid protein aggregation and imaging amyloid deposits” (Pfizer Inc., priority 1999, dated 2005)
